# Assay results taken from PubChem BioAssay (NCI).
#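 Test compounds were applied to cells in 96-well plates for 48 hours at 5 doses. GI50 = concentration required for 50% inhibition of growth. TGI marks complete inhibition of growth.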
# How the values were obtained:
# Assay in all cases: inhibition of tumour cell growth, NCI panel, 48 h
# A498 renal = test system: A498 renal
# A549 NSCLC = test system: A549 NSCLC
# ACHN renal = test system: ACHN renal
# BT-549 breast = test system: BT-549 breast
# CAKI-1 renal = test system: CAKI-1 renal
# CCRF-CEM leukemia = test system: CCRF-CEM leukemia
# COLO 205 colon = test system: COLO 205 colon
# DU-145 prostate = test system: DU-145 prostate
# EKVX NSCLC = test system: EKVX NSCLC
# HCC-2998 colon = test system: HCC-2998 colon
# HCT-116 colon = test system: HCT-116 colon
# HCT-15 colon = test system: HCT-15 colon
# HL-60(TB) leukemia = test system: HL-60(TB) leukemia
# HOP-92 NSCLC = test system: HOP-92 NSCLC
# HS 578T breast = test system: HS 578T breast
# IGROV1 ovarian = test system: IGROV1 ovarian
# K-562 leukemia = test system: K-562 leukemia
# KM12 colon = test system: KM12 colon
# LOX IMVI melanoma = test system: LOX IMVI melanoma
# M14 melanoma = test system: M14 melanoma
# MALME-3M melanoma = test system: MALME-3M melanoma
# MCF7 breast = test system: MCF7 breast
# MDA-MB-231 breast = test system: MDA-MB-231 breast
# MDA-MB-435 = test system: MDA-MB-435
# MOLT-4 leukemia = test system: MOLT-4 leukemia
# NCI-H226 lung = test system: NCI-H226 lung
# NCI-H23 lung = test system: NCI-H23 lung
# NCI-H460 lung = test system: NCI-H460 lung
# NCI-H522 lung = test system: NCI-H522 lung
# NCI/ADR-RES ovarian = test system: NCI/ADR-RES ovarian
# OVCAR-3 ovarian = test system: OVCAR-3 ovarian
# OVCAR-4 ovarian = test system: OVCAR-4 ovarian
# OVCAR-5 ovarian = test system: OVCAR-5 ovarian
# PC-3 prostate = test system: PC-3 prostate
# RXF 393 renal = test system: RXF 393 renal
# SF-268 CNS = test system: SF-268 CNS
# SF-295 CNS = test system: SF-295 CNS
# SF-539 CNS = test system: SF-539 CNS
# SK-MEL-2 melanoma = test system: SK-MEL-2 melanoma
# SK-MEL-28 melanoma = test system: SK-MEL-28 melanoma
# SK-MEL-5 melanoma = test system: SK-MEL-5 melanoma
# SK-OV-3 ovarian = test system: SK-OV-3 ovarian
# SN12C renal = test system: SN12C renal
# SNB-19 CNS = test system: SNB-19 CNS
# SNB-75 CNS = test system: SNB-75 CNS
# SR leukemia = test system: SR leukemia
# SW-620 colon = test system: SW-620 colon
# TK-10 renal = test system: TK-10 renal
# UACC-257 melanoma = test system: UACC-257 melanoma
# UACC-62 melanoma = test system: UACC-62 melanoma
# UO-31 renal = test system: UO-31 renal
# 786-0 renal = test system: 786-0 renal
# HOP-62 NSCLC = test system: HOP-62 NSCLC
# HT29 colon = test system: HT29 colon
# OVCAR-8 ovarian = test system: OVCAR-8 ovarian
# RPMI-8226 leukemia = test system: RPMI-8226 leukemia
# U251 CNS = test system: U251 CNS
smiles,measurement,setting,value
COc1ccc(C2CC(c3cccc(Nc4ccncc4)c3)=NN2c2ccc(Cl)cc2)cc1 (centres undefined),GI50,A498 renal,1520 nM
same,TGI,A498 renal,8.16 µM
same,GI50,A549 NSCLC,1870 nM
same,TGI,A549 NSCLC,3.65 µM
same,GI50,ACHN renal,1560 nM
same,TGI,ACHN renal,2900 nM
same,GI50,BT-549 breast,1920 nM
same,TGI,BT-549 breast,4 µM
same,GI50,CAKI-1 renal,1320 nM
same,TGI,CAKI-1 renal,2640 nM
same,GI50,CCRF-CEM leukemia,2500 nM
same,TGI,CCRF-CEM leukemia,7.74 µM
same,GI50,COLO 205 colon,1780 nM
same,TGI,COLO 205 colon,3760 nM
same,GI50,DU-145 prostate,1740 nM
same,TGI,DU-145 prostate,3170 nM
same,GI50,EKVX NSCLC,1.66 µM
same,TGI,EKVX NSCLC,3.27 µM
same,GI50,HCC-2998 colon,1740 nM
same,TGI,HCC-2998 colon,3.22 µM
same,GI50,HCT-116 colon,1650 nM
same,TGI,HCT-116 colon,3.36 µM
same,GI50,HCT-15 colon,1880 nM
same,TGI,HCT-15 colon,3.58 µM
same,GI50,HL-60(TB) leukemia,1910 nM
same,TGI,HL-60(TB) leukemia,4.06 µM
same,GI50,HOP-92 NSCLC,1120 nM
same,TGI,HOP-92 NSCLC,2440 nM
same,GI50,HS 578T breast,1770 nM
same,TGI,HS 578T breast,3.68 µM
same,GI50,IGROV1 ovarian,1680 nM
same,TGI,IGROV1 ovarian,3.28 µM
same,GI50,K-562 leukemia,1600 nM
same,TGI,K-562 leukemia,4.37 µM
same,GI50,KM12 colon,1720 nM
same,TGI,KM12 colon,3.37 µM
same,GI50,LOX IMVI melanoma,1660 nM
same,TGI,LOX IMVI melanoma,3.03 µM
same,GI50,M14 melanoma,1610 nM
same,TGI,M14 melanoma,3.24 µM
same,GI50,MALME-3M melanoma,1590 nM
same,TGI,MALME-3M melanoma,3.15 µM
same,GI50,MCF7 breast,1830 nM
same,TGI,MCF7 breast,3.63 µM
same,GI50,MDA-MB-231 breast,1330 nM
same,TGI,MDA-MB-231 breast,2.65 µM
same,GI50,MDA-MB-435,1630 nM
same,TGI,MDA-MB-435,3050 nM
same,GI50,MOLT-4 leukemia,1810 nM
same,TGI,MOLT-4 leukemia,4.1 µM
same,GI50,NCI-H226 lung,2270 nM
same,TGI,NCI-H226 lung,7.73 µM
same,GI50,NCI-H23 lung,1810 nM
same,TGI,NCI-H23 lung,3.43 µM
same,GI50,NCI-H460 lung,1810 nM
same,TGI,NCI-H460 lung,3.37 µM
same,GI50,NCI-H522 lung,1790 nM
same,TGI,NCI-H522 lung,3710 nM
same,GI50,NCI/ADR-RES ovarian,1730 nM
same,TGI,NCI/ADR-RES ovarian,3.3 µM
same,GI50,OVCAR-3 ovarian,1670 nM
same,TGI,OVCAR-3 ovarian,3150 nM
same,GI50,OVCAR-4 ovarian,1580 nM
same,TGI,OVCAR-4 ovarian,3.06 µM
same,GI50,OVCAR-5 ovarian,1760 nM
same,TGI,OVCAR-5 ovarian,3.68 µM
same,GI50,PC-3 prostate,1440 nM
same,TGI,PC-3 prostate,2960 nM
same,GI50,RXF 393 renal,1590 nM
same,TGI,RXF 393 renal,3.03 µM
same,GI50,SF-268 CNS,1720 nM
same,TGI,SF-268 CNS,3.43 µM
same,GI50,SF-295 CNS,1850 nM
same,TGI,SF-295 CNS,3.3 µM
same,GI50,SF-539 CNS,1630 nM
same,TGI,SF-539 CNS,3.03 µM
same,GI50,SK-MEL-2 melanoma,2070 nM
same,TGI,SK-MEL-2 melanoma,4.28 µM
same,GI50,SK-MEL-28 melanoma,1730 nM
same,TGI,SK-MEL-28 melanoma,3.2 µM
same,GI50,SK-MEL-5 melanoma,1770 nM
same,TGI,SK-MEL-5 melanoma,3180 nM
same,GI50,SK-OV-3 ovarian,2190 nM
same,TGI,SK-OV-3 ovarian,5.79 µM
same,GI50,SN12C renal,1600 nM
same,TGI,SN12C renal,3.07 µM
same,GI50,SNB-19 CNS,1660 nM
same,TGI,SNB-19 CNS,3.23 µM
same,GI50,SNB-75 CNS,1410 nM
same,TGI,SNB-75 CNS,3.01 µM
same,GI50,SR leukemia,1350 nM
same,TGI,SR leukemia,3.38 µM
same,GI50,SW-620 colon,1610 nM
same,TGI,SW-620 colon,3.19 µM
same,GI50,TK-10 renal,1820 nM
same,TGI,TK-10 renal,3.5 µM
same,GI50,UACC-257 melanoma,1950 nM
same,TGI,UACC-257 melanoma,3.87 µM
same,GI50,UACC-62 melanoma,1730 nM
same,TGI,UACC-62 melanoma,3.22 µM
same,GI50,UO-31 renal,1200 nM
same,TGI,UO-31 renal,2510 nM
COc1cccc(C2C3=C(COC3=O)N(CCO)c3cc(OC)ccc32)c1 (centres undefined),GI50,786-0 renal,148 nM
same,TGI,786-0 renal,> 29.6 µM
same,GI50,A498 renal,36.7 nM
same,TGI,A498 renal,1.08 µM
same,GI50,A549 NSCLC,120 nM
same,TGI,A549 NSCLC,> 100 µM
same,GI50,ACHN renal,230 nM
same,TGI,ACHN renal,> 100000 nM
same,GI50,BT-549 breast,295 nM
same,TGI,BT-549 breast,> 28.5 µM
same,GI50,CAKI-1 renal,768 nM
same,TGI,CAKI-1 renal,> 100000 nM
same,GI50,CCRF-CEM leukemia,204 nM
same,TGI,CCRF-CEM leukemia,> 100 µM
same,GI50,COLO 205 colon,107 nM
same,TGI,COLO 205 colon,755 nM
same,GI50,DU-145 prostate,139 nM
same,TGI,DU-145 prostate,1910 nM
same,GI50,EKVX NSCLC,22.6 µM
same,TGI,EKVX NSCLC,> 100 µM
same,GI50,HCC-2998 colon,137 nM
same,TGI,HCC-2998 colon,> 100 µM
same,GI50,HCT-116 colon,107 nM
same,GI50,HCT-15 colon,121 nM
same,TGI,HCT-15 colon,> 100 µM
same,GI50,HL-60(TB) leukemia,276 nM
same,TGI,HL-60(TB) leukemia,> 100 µM
same,GI50,HOP-62 NSCLC,124 nM
same,TGI,HOP-62 NSCLC,> 100 µM
same,GI50,HS 578T breast,188 nM
same,TGI,HS 578T breast,> 80.8 µM
same,GI50,HT29 colon,74.3 nM
same,TGI,HT29 colon,2900 nM
same,GI50,IGROV1 ovarian,305 nM
same,TGI,IGROV1 ovarian,> 100 µM
same,GI50,K-562 leukemia,89.5 nM
same,TGI,K-562 leukemia,> 100 µM
same,GI50,KM12 colon,54.3 nM
same,GI50,LOX IMVI melanoma,227 nM
same,TGI,LOX IMVI melanoma,> 100 µM
same,GI50,M14 melanoma,156 nM
same,TGI,M14 melanoma,> 100 µM
same,GI50,MALME-3M melanoma,78.6 nM
same,TGI,MALME-3M melanoma,> 100 µM
same,GI50,MCF7 breast,34.8 nM
same,TGI,MCF7 breast,> 100 µM
same,GI50,MDA-MB-231 breast,362 nM
same,TGI,MDA-MB-231 breast,4.91 µM
same,GI50,MDA-MB-435,23.2 nM
same,TGI,MDA-MB-435,63.1 nM
same,GI50,MOLT-4 leukemia,440 nM
same,TGI,MOLT-4 leukemia,> 100 µM
same,GI50,NCI-H226 lung,182 nM
same,TGI,NCI-H226 lung,8.86 µM
same,GI50,NCI-H23 lung,172 nM
same,TGI,NCI-H23 lung,> 100 µM
same,GI50,NCI-H460 lung,90.6 nM
same,GI50,NCI-H522 lung,30.7 nM
same,TGI,NCI-H522 lung,1440 nM
same,GI50,NCI/ADR-RES ovarian,90.8 nM
same,GI50,OVCAR-3 ovarian,34.7 nM
same,TGI,OVCAR-3 ovarian,166 nM
same,GI50,OVCAR-4 ovarian,153 nM
same,TGI,OVCAR-4 ovarian,> 100 µM
same,GI50,OVCAR-5 ovarian,442 nM
same,TGI,OVCAR-5 ovarian,> 100 µM
same,GI50,OVCAR-8 ovarian,206 nM
same,TGI,OVCAR-8 ovarian,> 100 µM
same,GI50,PC-3 prostate,89.8 nM
same,TGI,PC-3 prostate,> 100000 nM
same,GI50,RPMI-8226 leukemia,271 nM
same,TGI,RPMI-8226 leukemia,> 100 µM
same,GI50,SF-268 CNS,181 nM
same,TGI,SF-268 CNS,> 100 µM
same,GI50,SF-295 CNS,42.2 nM
same,TGI,SF-295 CNS,> 100 µM
same,GI50,SF-539 CNS,87.8 nM
same,GI50,SK-MEL-2 melanoma,536 nM
same,GI50,SK-MEL-28 melanoma,130 nM
same,TGI,SK-MEL-28 melanoma,> 100 µM
same,GI50,SK-MEL-5 melanoma,47.4 nM
same,TGI,SK-MEL-5 melanoma,1970 nM
same,GI50,SK-OV-3 ovarian,109 nM
same,GI50,SN12C renal,493 nM
same,TGI,SN12C renal,> 100 µM
same,GI50,SNB-19 CNS,221 nM
same,TGI,SNB-19 CNS,> 100 µM
same,GI50,SNB-75 CNS,67.1 nM
same,TGI,SNB-75 CNS,> 100 µM
same,GI50,SR leukemia,49.3 nM
same,TGI,SR leukemia,> 100 µM
same,GI50,SW-620 colon,86.3 nM
same,TGI,SW-620 colon,> 100 µM
same,TGI,TK-10 renal,> 100 µM
same,GI50,U251 CNS,99.2 nM
same,TGI,U251 CNS,> 100 µM
same,GI50,UACC-257 melanoma,36 nM
same,TGI,UACC-257 melanoma,> 100 µM
same,GI50,UACC-62 melanoma,48.8 nM
same,TGI,UACC-62 melanoma,> 100 µM
same,GI50,UO-31 renal,187 nM
same,TGI,UO-31 renal,> 100000 nM
